In US20230220001A1, “METHOD FOR SYNTHESIS OF THIOETHER-[…]” ([…] RESEARCH GMBH, priority 2020, published 2023):
Starred links: 1 amine or outer side, 2 acyl side, 3 side chain; linkers in the order of their positions; H or OH if unused. Positions of bridges follow the written chain, without caps; N, C: chain ends. Non-standard residues stand in square brackets, D forms with d. Residues, ends and D or L forms follow the SMILES beside them. Trp(2-yl) = O=C([C@H](Cc1c([*:3])[nH]c2ccccc12)N[*:1])[*:2]; Ile(4R-OH,5-OH) = C[C@H]([C@H](N)C(=O)O)[C@@H](O)CO; Pro(4,4-F2) = O=C(O)[C@@H]1CC(F)(F)CN1; Hyp = O=C(O)[C@@H]1C[C@@H](O)CN1; Tle = CC(C)(C)[C@H](N)C(=O)O; Aze = O=C(O)[C@@H]1CCN1; Ac3c = NC1(C(=O)O)CC1; Aib = CC(C)(N)C(=O)O; Sar = CNCC(=O)O

Tests used:
RNA Polymerase II = biological target: T1, RNA Polymerase II (Homo sapiens, UniProt P24928); test: RNA Polymerase II assay (HeLaScribe nuclear extract in vitro transcription system, RT-PCR quantification of mRNA); type: biochemical; settings: for residual RNAP II activity at highest concentration tested: highest concentration tested (range up to 1×10^−6 M)
T1 construct: HeLaScribe® Nuclear extract in vitro transcription system (Promega, #E3092); host or cells: HeLa nuclear extract (purchased)
Method: (§1) Cytotoxicity of compounds of the invention was assessed using an RNA Polymerase II inhibition assay and by assessing cytotoxicity in a cell viability assay on HEK cells and HEK-OATP1 B3 cells, the results of which are depicted in Table 6.
The in vitro RNA Pol II assay was done using a HeLaScribe® Nuclear extract in vitro transcription system (Promega, #E3092) was used to compare the inhibitory effect of amanitin analogues on RNA Pol at seven concentrations from 6.4×10^−11 M to 1×10^−6 M (serial 1:5 dilutions). As positive control, template run-off transcripts from a CMV immediate early promoter were used (Promega, #E3092). Reverse transcription was followed by real time-PCR for the quantification of the mRNA product. RNA detection was performed using a QuantiFast Probe RT-PCR Plus Kit (Qiagen). The PCR product was monitored by determination of fluorescence on a Real Time PCR CFX Connect Real Time System (Bio-Rad Laboratories Inc.). α-amanitin, analogues and untreated control were each analyzed in triplicates. Negative control, positive control and no target control were analyzed in duplicates. The ACT method was used to calculate the inhibitory effect of the test item on transcription normalized to the untreated control.

[1] = Cell viability assay (BrdU incorporation) on HEK293 cells; type: cell-based; settings: human, wildtype HEK293 cells, 96 h drug exposure, read-out: Cytotoxicity on HEK-293 cells EC50
Method: as §1
(§2) Cell Viability Assay (HEK and HEK-OATP1B3 Cells)
(§3) The in vitro toxicity of the inventive compounds was determined in Human embryonic kidney HEK293 cells and in HEK293-OATP1B3 cells that overexpress the organic anion-transporting polypeptide […] (OATP1B3) to assess whether OATP1 B3 mediates active transport of amanitin analogues into the cell. Wildtype HEK293 (ATCC, Manassas, Va.) and HEK293-OATP1 B3 cells (see: Pahl et al., Cytotoxic Payloads for Antibody-Drug Conjugates In: Amatoxins as RNA Polymerase II Inhibiting Antibody-Drug Conjugate (ADC) Payloads CHAPTER 19, The Royal Society of Chemistry 2019, ISBN: 978-1-78801-077-1, or e.g. Bowman et al. Drug Metab Dispos 48:18-24, January 2020) were incubated with compound 7f (α-amanitin) or the compounds as disclosed in Table 6. Cytotoxicity was determined by a BrdU assay. HEK293 and HEK-OATP1B3 cells were plated at 2.5×10^3 cells/well in a 1:1 mixture of Ham's F12 with DMEM containing 10% charcoal-stripped FCS onto poly-D-lysine-coated 96-well plates and grown for 24 hours. Subsequently, cells were incubated with amanitin derivatives at 8 different concentrations (1×10^−6 M to 1.28×10^−11 M, serial 1:5 dilutions). Following 96 h of drug exposure, cell viability was determined by a BrdU incorporation assay (Cell Proliferation ELISA, BrdU, Roche) and chemiluminescence was measured using a FLUOstar Optima plate reader (BMG LABtech). Data analysis was performed with GraphPad Prism 9.0 (GraphPad Software, Inc., La Jolla, Calif.) software to plot curve fits.

OATP1B3 = test: Cell viability assay (BrdU incorporation) on HEK293-OATP1B3 cells overexpressing OATP1B3; type: cell-based; settings: human, HEK293-OATP1B3 cells (overexpress OATP1B3), 96 h drug exposure, read-out: Cytotoxicity on HEK-OATP1B3 cells EC50
Method: as §1, §2, §3

[2] = slow acting toxin; T. Wieland 1986; cited from earlier work

Row | SMILES | IC50 (RNA Polymerase II) | residual RNAP II activity at highest concentration tested (RNA Polymerase II) | EC50 at 96 h [1] | EC50 at 96 h (OATP1B3) | LD50 [2]
1 | CC[C@H](C)[C@@H]1NC(=O)CNC(=O)[C@@H]2Cc3c([nH]c4ccccc34)SC[C@H](NC(=O)CNC1=O)C(=O)N[C@@H](CC(N)=O)C(=O)N1CC[C@H]1C(=O)N[C@@H]([C@@H](C)[C@@H](O)CO)C(=O)N2 [Compound 7n] (cyclo([Aze][Ile(4R-OH,5-OH)][Trp(2-yl)]GIGCN); thioether 3-7) | 160 nM | 40% | > 1000 nM | > 100 nM | –
2 | CC[C@H](C)[C@@H]1NC(=O)CNC(=O)[C@@H]2Cc3c([nH]c4ccccc34)SC[C@H](NC(=O)[C@@H](C)NC1=O)C(=O)N[C@@H](CC(N)=O)C(=O)N1C[C@H](O)C[C@H]1C(=O)N[C@@H]([C@@H](C)[C@@H](O)CO)C(=O)N2 [Compound 7o] (cyclo(CN[Hyp][Ile(4R-OH,5-OH)][Trp(2-yl)]GI[dA]); thioether 1-5) | 1.4 nM | – | > 1000 nM | 28 nM | –
3 | CC[C@H](C)[C@@H]1NC(=O)CNC(=O)[C@@H]2Cc3c([nH]c4ccccc34)SC[C@H](NC(=O)CN(C)C1=O)C(=O)N[C@@H](CC(N)=O)C(=O)N1C[C@H](O)C[C@H]1C(=O)N[C@@H]([C@@H](C)[C@@H](O)CO)C(=O)N2 [Compound 7l] (cyclo(CN[Hyp][Ile(4R-OH,5-OH)][Trp(2-yl)]GI[Sar]); thioether 1-5) | 15 nM | 10% | > 1000 nM | 29 nM | –
4 | CC[C@H](C)[C@@H]1NC(=O)CNC(=O)[C@@H]2Cc3c([nH]c4ccccc34)SC[C@H](NC(=O)C3(CC3)NC1=O)C(=O)N[C@@H](CC(N)=O)C(=O)N1C[C@H](O)C[C@H]1C(=O)N[C@@H]([C@@H](C)[C@@H](O)CO)C(=O)N2 [Compound 7r] (cyclo([Ac3c]CN[Hyp][Ile(4R-OH,5-OH)][Trp(2-yl)]GI); thioether 2-6) | 26 nM | – | > 1000 nM | 10 nM | –
5 | CC[C@H](C)[C@@H]1NC(=O)CNC(=O)[C@@H]2Cc3c([nH]c4cc(O)ccc34)[S@+]([O-])C[C@H](NC(=O)CNC1=O)C(=O)N[C@@H](CC(N)=O)C(=O)N1C[C@H](O)C[C@H]1C(=O)N[C@@H]([C@@H](C)[C@@H](O)CO)C(=O)N2 [Compound 7f, Alpha-amanitin, reference compound] | 2.7 nM | – | 210 nM | 5.2 nM | 0.05 to 0.1 mg/kg
6 | C[C@H]([C@@H]1NC(=O)[C@@H]2C[C@@H](O)CN2C(=O)[C@H](CC(N)=O)NC(=O)[C@@H]2CSc3[nH]c4ccccc4c3C[C@H](NC1=O)C(=O)NCC(=O)N[C@@H](C(C)(C)C)C(=O)NCC(=O)N2)[C@@H](O)CO [Compound 7p] (cyclo(CN[Hyp][Ile(4R-OH,5-OH)][Trp(2-yl)]G[Tle]G); thioether 1-5) | 25 nM | – | > 1000 nM | 16 nM | –
7 | CC[C@H](C)[C@@H]1NC(=O)CNC(=O)[C@@H]2Cc3c([nH]c4ccccc34)SC[C@H](NC(=O)[C@H]3CCCN3C1=O)C(=O)N[C@@H](CC(N)=O)C(=O)N1C[C@H](O)C[C@H]1C(=O)N[C@@H]([C@@H](C)[C@@H](O)CO)C(=O)N2 [Compound 7i] (cyclo(CN[Hyp][Ile(4R-OH,5-OH)][Trp(2-yl)]GI[dP]); thioether 1-5) | 12 nM | 20% | > 1000 nM | 210 nM | –
8 | CC[C@H](C)[C@@H]1NC(=O)CNC(=O)[C@@H]2Cc3c([nH]c4ccccc34)SC[C@H](NC(=O)CNC1=O)C(=O)N[C@@H](CC(N)=O)C(=O)N1CC(F)(F)C[C@H]1C(=O)N[C@@H]([C@@H](C)[C@@H](O)CO)C(=O)N2 [Compound 7q] (cyclo(CN[Pro(4,4-F2)][Ile(4R-OH,5-OH)][Trp(2-yl)]GIG); thioether 1-5) | 110 nM | 10% | > 1000 nM | 49 nM | –
9 | CC[C@H](C)[C@@H]1NC(=O)CNC(=O)[C@@H]2Cc3c([nH]c4ccccc34)SC[C@H](NC(=O)C(C)(C)NC1=O)C(=O)N[C@@H](CC(N)=O)C(=O)N1C[C@H](O)C[C@H]1C(=O)N[C@@H]([C@@H](C)[C@@H](O)CO)C(=O)N2 [Compound 7m] (cyclo([Aib]CN[Hyp][Ile(4R-OH,5-OH)][Trp(2-yl)]GI); thioether 2-6) | 71 nM | 15% | > 1000 nM | 120 nM | –
10 | CC[C@H](C)[C@@H]1NC(=O)CNC(=O)[C@@H]2Cc3c([nH]c4ccccc34)SC[C@H](NC(=O)CNC1=O)C(=O)N[C@@H](CC(N)=O)C(=O)N1C[C@H](O)C[C@H]1C(=O)N[C@@H]([C@@H](C)[C@@H](O)CO)C(=O)N2 [Compound 7d] (cyclo(CN[Hyp][Ile(4R-OH,5-OH)][Trp(2-yl)]GIG); thioether 1-5) | 6.8 nM | – | 81 nM | 0.23 nM | –
